Results reported in patent US20240293416A1, “TREATMENT OF LIVER DISORDERS WITH A THR-ß AGONIST” (Terns Pharmaceuticals, Inc., priority 2021, published 2024).
Marks after values point to notes of the source that are not given here.

Test: Single ascending dose trial: adverse event and safety monitoring
Format: in vivo, human
Conditions: fasted, n = 6
Method: A single-ascending dose clinical trial of Compound 1 (potassium salt) was performed.

N#Cc1nn(-c2cc(Cl)c(Oc3n[nH]c(=O)c4ccccc34)c(Cl)c2)c(=O)[nH]c1=O [Compound 2]
AEs by relationship to drug: Not related (single 3 mg dose): 2 (33.3%) | AEs by relationship to drug: Possibly related (single 3 mg dose): 0 | AEs by relationship to drug: Related (single 3 mg dose): 0 | AEs by relationship to drug: Unlikely related (single 3 mg dose): 0 | Any AE, all CTCAE grades (single 3 mg dose): 2 (33.3%) | CTCAE Grade 1 (single 3 mg dose): 0 | CTCAE Grade 2 (single 3 mg dose): 0 | CTCAE Grade 3 or higher (single 3 mg dose): 0 | Serious AEs (single 3 mg dose): 0 | AEs by relationship to drug: Not related (single 10 mg dose): 0 | AEs by relationship to drug: Possibly related (single 10 mg dose): 0 | AEs by relationship to drug: Related (single 10 mg dose): 0 | AEs by relationship to drug: Unlikely related (single 10 mg dose): 0 | Any AE, all CTCAE grades (single 10 mg dose): 0 | CTCAE Grade 1 (single 10 mg dose): 0 | CTCAE Grade 2 (single 10 mg dose): 0 | CTCAE Grade 3 or higher (single 10 mg dose): 0 | Serious AEs (single 10 mg dose): 0 | AEs by relationship to drug: Not related (single 30 mg dose): 1 (16.7%) | AEs by relationship to drug: Possibly related (single 30 mg dose): 1 (16.7%)* | AEs by relationship to drug: Related (single 30 mg dose): 0 | AEs by relationship to drug: Unlikely related (single 30 mg dose): 0 | Any AE, all CTCAE grades (single 30 mg dose): 2 (33.3%) | CTCAE Grade 1 (single 30 mg dose): 1 (16.7%) | CTCAE Grade 2 (single 30 mg dose): 1 (16.7%) | CTCAE Grade 3 or higher (single 30 mg dose): 0 | Serious AEs (single 30 mg dose): 0 | AEs by relationship to drug: Not related (single 60 mg dose): 0 | AEs by relationship to drug: Possibly related (single 60 mg dose): 0 | AEs by relationship to drug: Related (single 60 mg dose): 0 | AEs by relationship to drug: Unlikely related (single 60 mg dose): 0 | Any AE, all CTCAE grades (single 60 mg dose): 0 | CTCAE Grade 1 (single 60 mg dose): 0 | CTCAE Grade 2 (single 60 mg dose): 0 | CTCAE Grade 3 or higher (single 60 mg dose): 0 | Serious AEs (single 60 mg dose): 0
